Source: ChEMBL document CHEMBL3351465, “Discovery of functionalized bisimidazoles bearing cyclic aliphatic-phenyl motifs as HCV NS5A inhibitors” (Bioorg Med Chem Lett, 2014)
In brackets after ≈: the same amount, converted by molar mass.

How the values were obtained:
[1] = Inhibition of NS5A in HCV genotype-1a infected in human HuH7 cells by luciferase reporter gene assay; type: cell-based, Hepatitis C virus subtype 1a; conditions: Hepatitis C virus, Huh-7
[2] = Inhibition of NS5A in HCV genotype-1b infected in human HuH7 cells by luciferase reporter gene assay; type: cell-based, Hepatitis C virus subtype 1b; conditions: Hepatitis C virus, Huh-7
[3] = Tmax in Sprague-Dawley rat at 10 mg/kg, po; type: ADME, organism-based; design: dose 10 mg/kg, route oral; conditions: in vivo
[4] = Cmax in Sprague-Dawley rat at 10 mg/kg, po; type: ADME, organism-based; design: dose 10 mg/kg, route oral; conditions: in vivo
[5] = AUClast in Sprague-Dawley rat at 10 mg/kg, po; type: ADME, organism-based; design: time 0 - last, dose 10 mg/kg, route oral; conditions: plasma
[6] = Solubility of the compound at pH 7.4 by UV detection method; type: physicochemical; conditions: buffer

SMILES | EC50 [1] | EC50 [2] | Tmax [3] | Cmax [4] | AUC(0-t) [5] | solubility [6]
COC(=O)N[C@H](C(=O)N[C@@H](C)c1ncc(C2CCN(c3c(F)cc(-c4cnc([C@@H]5CCCN5C(=O)[C@@H](NC(=O)OC)C(C)C)[nH]4)cc3F)CC2)[nH]1)C(C)C | 68 nM | 0.14 nM | – | – | – | –
COC(=O)N[C@H](C(=O)N[C@H](c1ncc(C2CCN(c3c(F)cc(-c4cnc([C@@H]5CCCN5C(=O)[C@@H](NC(=O)OC)C(C)C)[nH]4)cc3F)CC2)[nH]1)C(C)C)C(C)C | 25 nM | 0.07 nM | – | – | – | –
COC(=O)N[C@H](C(=O)N[C@@H](C)c1ncc(-c2cc(F)c(N3CCC(c4cnc([C@@H]5CCCN5C(=O)[C@@H](NC(=O)OC)C(C)C)[nH]4)CC3)c(F)c2)[nH]1)C(C)C | 39 nM | 0.27 nM | – | – | – | –
COC(=O)N[C@@H](C(=O)N1CCOC[C@H]1c1ncc(-c2cc(F)c(N3CCC(c4cnc([C@@H]5CCCN5C(=O)[C@H](NC(=O)OC)c5ccccc5)[nH]4)CC3)c(F)c2)[nH]1)c1ccccc1 | 73 nM | 0.04 nM | – | – | – | –
COC(=O)N[C@@H](C)C(=O)N1CCC[C@H]1c1ncc(-c2ccc([C@H]3CC[C@H](c4cnc([C@@H]5CCCN5C(=O)[C@H](C)NC(=O)OC)[nH]4)CC3)cc2)[nH]1 | 7.2 nM | 0.33 nM | – | – | – | –
COC(=O)N[C@H](C(=O)N1CCC[C@H]1c1ncc(-c2ccc([C@H]3CC[C@H](c4cnc([C@@H]5CCCN5C(=O)[C@@H](NC(=O)OC)C5CC5)[nH]4)CC3)cc2)[nH]1)C1CC1 | 4.5 nM | 0.86 nM | – | – | – | –
CC[C@H](C)[C@H](NC(=O)OC)C(=O)N1CCC[C@H]1c1ncc(-c2ccc([C@H]3CC[C@H](c4cnc([C@@H]5CCCN5C(=O)[C@@H](NC(=O)OC)[C@@H](C)CC)[nH]4)CC3)cc2)[nH]1 | 4.1 nM | 0.05 nM | – | – | – | –
COC(=O)N[C@H](C(=O)N1CCC[C@H]1c1ncc(-c2ccc([C@H]3CC[C@H](c4cnc([C@@H]5CCCN5C(=O)[C@@H](NC(=O)OC)[C@@H](C)OC)[nH]4)CC3)cc2)[nH]1)[C@@H](C)OC | 1.4 nM | 0.19 nM | – | – | – | –
COC(=O)N[C@H](C(=O)N1CCC[C@H]1c1ncc(-c2ccc([C@H]3CC[C@H](c4cnc([C@@H]5CCCN5C(=O)[C@@H](c5ccccc5)N(C)C)[nH]4)CC3)cc2)[nH]1)C(C)C | 1.7 nM | 0.14 nM | – | – | – | –
COC(=O)N[C@@H](C(=O)N1CCC[C@H]1c1ncc(-c2ccc([C@H]3CC[C@H](c4cnc([C@@H]5CCCN5C(=O)[C@@H](c5ccccc5)N(C)C)[nH]4)CC3)cc2)[nH]1)c1ccccc1 | 1.4 nM | 0.11 nM | 1.67 h | 54.1 ng/mL | 255 ng·h/mL | –
COC(=O)N[C@H](C(=O)N1CCC[C@H]1c1ncc(-c2ccc([C@H]3CC[C@H](c4cnc([C@@H]5CCCN5C(=O)[C@H](C(C)C)N(C)C)[nH]4)CC3)cc2)[nH]1)C(C)C | > 100 nM | 0.7 nM | – | – | – | –
COC(=O)N[C@H](C(=O)N1CCC[C@H]1c1ncc(-c2ccc([C@H]3CC[C@H](c4cnc([C@@H]5CCCN5C(=O)[C@H](NC(=O)OC)c5ccccc5)[nH]4)CC3)cc2)[nH]1)C(C)C | 2.6 nM | 0.05 nM | – | – | – | –
COC(=O)N[C@H](C(=O)N1CCC[C@H]1c1ncc([C@H]2CC[C@H](c3ccc(-c4cnc([C@@H]5CCCN5C(=O)[C@H](NC(=O)OC)c5ccccc5)[nH]4)cc3)CC2)[nH]1)C(C)C | 4.4 nM | 0.088 nM | – | – | – | –
COC(=O)N[C@H](C(=O)N1CCC[C@H]1c1ncc(-c2ccc(-c3ccc(-c4cnc([C@@H]5CCCN5C(=O)[C@@H](NC(=O)OC)C(C)C)[nH]4)cc3)cc2)[nH]1)C(C)C [DACLATASVIR] | 0.14 nM | 0.023 nM | – | – | – | 6.8 µg/mL (≈ 9.2 µM)
